Calls of active or inactive are those of the source. No cut-off for these calls is given here.

Consider one molecule from ChEMBL document CHEMBL1155140, “Differentially expressed proteins in derivatives of Candida albicans displaying a stable histatin 3-resistant phenotype” (2007).

In assay [1] the test system is Candida albicans. As to the kind of experiment: Antifungal activity against histatin-resistant Candida albicans CAHR1 at 0.2 mg/mL measured after storage at -80 degC for 1 year. Format: functional.
For assay [2], the system named is Candida albicans. As to the kind of experiment: Antifungal activity against histatin-resistant Candida albicans CAHR4 at 0.2 mg/mL measured after storage at -80 degC for 1 year. In kind it is functional.
The subject of assay [3] is Candida albicans. In words: Antifungal activity against histatin-susceptible Candida albicans CA132A at 0.2 mg/mL. Format: functional.
The test system of assay [4] is Candida albicans. In words: Antifungal activity against histatin-resistant Candida albicans CAHR04A at 0.2 mg/mL. In kind it is functional.
For assay [5], the system named is Candida albicans. In words: Antifungal activity against histatin-resistant Candida albicans CAHR04B at 0.2 mg/mL. Format: functional.
In assay [6] the test system is Candida albicans. As to the kind of experiment: Antifungal activity against histatin-resistant Candida albicans CAHR04U at 0.2 mg/mL. In kind it is functional.
Assay [7] concerns Candida albicans. In words: Reduction of TRK1 gene expression in histatin-resistant Candida albicans CAHR04A. Format: functional.
In assay [8] the test system is Candida albicans. As to the kind of experiment: Reduction of TRK1 gene expression in histatin-resistant Candida albicans CAHR04B. Format: functional.
The subject of assay [9] is Candida albicans. In words: Reduction of ATP release in histatin-resistant Candida albicans CAHR04A at 0.2 mg/mL after 45 mins.
Assay [10] concerns Candida albicans. In words: Reduction of ATP release in histatin-resistant Candida albicans CAHR04B at 0.2 mg/mL after 45 mins.
Assay [11] concerns Candida albicans. In words: Reduction of ATP release in histatin-resistant Candida albicans CAHR04U at 0.2 mg/mL after 45 mins.

For `CC(C)C[C@H](NC(=O)[C@H](Cc1ccc(O)cc1)NC(=O)[C@H](CC(N)=O)NC(=O)[C@H](CO)NC(=O)[C@H](CCCNC(=N)N)NC(=O)[C@H](Cc1ccc(O)cc1)NC(=O)CNC(=O)[C@H](CCCNC(=N)N)NC(=O)[C@H](Cc1cnc[nH]1)NC(=O)[C@H](CO)NC(=O)[C@H](Cc1cnc[nH]1)NC(=O)[C@H](Cc1cnc[nH]1)NC(=O)[C@H](CCCCN)NC(=O)[C@H](CCC(=O)O)NC(=O)[C@H](Cc1cnc[nH]1)NC(=O)[C@H](Cc1ccccc1)NC(=O)[C@H](CCCCN)NC(=O)[C@H](CCCNC(=N)N)NC(=O)[C@H](CCCCN)NC(=O)[C@H](Cc1ccc(O)cc1)NC(=O)CNC(=O)[C@H](Cc1cnc[nH]1)NC(=O)[C@H](Cc1cnc[nH]1)NC(=O)[C@H](CCCNC(=N)N)NC(=O)[C@H](CCCCN)NC(=O)[C@H](C)NC(=O)[C@H](Cc1cnc[nH]1)NC(=O)[C@H](CO)NC(=O)[C@@H](N)CC(=O)O)C(=O)N[C@@H](Cc1ccc(O)cc1)C(=O)N[C@@H](CC(=O)O)C(=O)N[C@@H](CC(N)=O)C(=O)O` [Histatin 3], the Activity is reported as 86.4% in the assay on Candida albicans [1]; 94.4% in the assay on Candida albicans [2]; 91.7% with Candida albicans [3]; 17.9% in the assay on Candida albicans [4]; 17.9% in the assay with Candida albicans [5]; 17.9% in the assay with Candida albicans [6]. The outcome in the assay on Candida albicans [7], with Candida albicans [9], with Candida albicans [10] and in the assay on Candida albicans [11] was Active. Also, the results for the “fold change (FC)” value with Candida albicans [7] and in the assay with Candida albicans [8] were 2 and 1.6, respectively.
